How the values were obtained:
Type in all cases: cell-based
B16F10 melanoma cells = experiment: Melanin generation in α-MSH-stimulated B16F10 melanoma cells (absorbance 405 nm); settings: 200 nM α-MSH, fucosterol 5, 10, 20 μM, 72 hrs, P<0.01, FIG. 2
Protocol: B16F10 melanoma cells were incubated in a DMEM medium including 10% fetal bovine serum and then added in a 6-well plate with 2.5×10^5 cell/mL (the final volume of 3 mL). After being incubated for 24 hrs, the medium was removed and fucosterol which was dissolved in the DMEM medium including 200 nM α-MSH was treated at 5, 10, and 20 μM concentrations, respectively. After 72 hrs, the incubated medium was removed from the 6-well plate and 0.25% trypsin-ethylenediaminetetraacetate (trypsin-EDTA) solution was treated to collect a cell pellet, and the cell pellet was transferred to a 1.5 mL tube and centrifuged for 10 min at 10,000 rpm to remove a supernatant. […] This solution was diluted with phosphate buffered saline (PBS) and then the melanin content in a sample treatment group was calculated by measuring absorbance at 405 nm by an ELISA reader (Versa max, Sunnyvale, Calif., USA). In this case, cells without the fucosterol were set to a control group and the melanin generation degree was measured in the control group and cells treated with the fucosterol. According to Equation 1 below, the melanin content compared with the control group was calculated and the result was illustrated in FIG. 2. Melanin content (%) compared with control group=absorbance of each test material/absorbance of control group×100 [Equation 1]

[1] = system: TRP-2 (tyrosinase-related protein 2); experiment: TRP-2 protein expression (western blot) in B16F10 melanoma cells; settings: 200 nM α-MSH, fucosterol 5 and 20 μM, 24 hrs, FIG. 6
Protocol: B16F10 melanoma cells were incubated in a DMEM medium including 10% fetal bovine serum and then added in a 6-well plate with 2.5×10^5 cell/mL (the final volume of 3 mL). After being incubated for 24 hrs, the medium was removed and fucosterol which was dissolved in the DMEM medium including 200 nM α-MSH was treated at 5 and 20 μM of concentrations, respectively. The cells after 24 hrs were lysed with a NP40 buffer solution including proteinase inhibitor cocktail and the protein amount extracted from the cells was quantified by using a Bradford reagent. The quantified protein was boiled for 5 min and isolated by electrophoresis with 10% SDS-PAGE to transfer the isolated proteins to a nitrocellular membrane. A primary antibody of […] and […] was diluted in 2.5% bovine serum albumin at a ratio of 1:1000 and reacted with the protein transferred to the nitrocellular membrane for 20 hrs at room temperature. The primary antibody was reacted and then the nitrocellular membrane was washed three times by using the TBST for 10 min. […] As the measured result, the protein expression of […] and […] was verified and it was shown that the loading amount of the protein was constant by α-tubulin.

[2] = system: MITF (microphthalmia transcription factor); experiment: MITF mRNA expression (RT-PCR) in B16F10 melanoma cells; settings: 200 nM α-MSH, fucosterol 5 and 20 μM, 24 hrs, FIG. 7
Protocol: B16F10 melanoma cells were incubated in a DMEM medium including 10% fetal bovine serum and then added in a 6-well plate with 2.5×10^5 cell/mL (the final volume of 3 mL). After being incubated for 24 hrs, the medium was removed and fucosterol which was dissolved in the DMEM medium including 200 nM α-MSH was treated at 5 and 20 μM of concentrations, respectively. After 24 hrs, the total RNA was isolated by using a TRIzol reagent (Invitrogen, Carlsbad, Calif., USA). The isolated total RNAs were quantified by using a nano-drop (ND-1000). The quantified RNA was synthesized to cDNA by using reverse transcriptase and a PCR machine (Applied biosystems, Foster city, CA, USA) and then the PCR was performed with specific primers below.
As the PCR result, the amplified cDNA was isolated with a 1.5% agarose gel by electrophoresis and cDNA bands were verified by using a G:BOX EF imaging system (Syngene, Cambridge, UK), and the result was illustrated in FIG. 7.

involucrin [3] = experiment: Involucrin mRNA expression (RT-PCR) in HaCaT human keratinocytes; settings: HaCaT cells, fucosterol 5, 10, 20 μM, 24 hrs, FIG. 9
Protocol: HaCaT human keratinocytes were incubated in a Dulbecco's Modified Eagle's Media (DMEM) medium including 10% fetal bovine serum and then put in a 6-well plate with 2×10^5 cell/ml (the final volume of 3 ml). After being incubated for 24 hrs, the medium was removed and fucosterol which was dissolved in the DMEM medium was treated at 5, 10, and 20 μM concentrations, respectively. After 24 hrs, the total RNA was collected by using a TRIzol reagent (Invitrogen, Carlsbad, Calif., USA) and reverse-transcribed and then a reverse transcription-polymerase chain reaction (RT-PCR) analysis was performed below. First, for cDNA synthesis, the RNA was reverse-transcribed by reverse transcriptase. The RT-PCR was performed by specific primers below and the result was illustrated in FIG. 9.

involucrin [4] = experiment: Involucrin protein expression (western blot) in HaCaT human keratinocytes; settings: HaCaT cells, fucosterol 5, 10, 20 μM, 24 hrs, FIG. 10
Protocol: HaCaT human keratinocytes were incubated in a Dulbecco's Modified Eagle's Media (DMEM) medium including 10% fetal bovine serum and then put in a 6-well plate with 2×10^5 cell/ml (the final volume of 3 ml). After being incubated for 24 hrs, the medium was removed and fucosterol which was dissolved in the DMEM medium was treated at 5, 10, and 20 μM concentrations, respectively. After 24 hrs, the HaCaT human keratinocytes were lysed with a NP40 buffer solution including proteinase inhibitor cocktail. The protein amount extracted from the HaCaT human keratinocytes was quantified by using a Bradford method. The sample was boiled for 5 min and then the same amount of protein ([…]) was isolated by electrophoresis with 10% SDS-PAGE. The isolated proteins after electrophoresis were transferred to a nitrocellular membrane and western blot was performed. A primary antibody was reacted and the nitrocellular membrane was washed three times by using Tris-buffer saline tween20 (TBST) for 10 min. In this case, the kind and the dilution of the primary antibody used in the present invention is 1:1000. In a secondary antibody reaction, a secondary antibody was put in the membrane performing the primary antibody reaction and reacted for 2 hrs at room temperature. In this case, a dilution of the secondary antibody was 1:5000. […]

C/C=C(\CC[C@@H](C)[C@H]1CC[C@H]2[C@@H]3CC=C4C[C@@H](O)CC[C@]4(C)[C@H]3CC[C@]12C)C(C)C [fucosterol]
inhibitory effect on melanin generation (B16F10 melanoma cells): very excellent inhibitory effect | protein expression of TRP-2 [1]: reduced | mRNA amount of MITF [2]: reduced | mRNA expression of involucrin (involucrin [3]): increased | protein expression of involucrin (involucrin [4]): increased
